Laboratory results taken from US20260262638A1, “AGRICULTURAL COMPOSITION” (priority 2022, published 2026).
Values joined by “and” are separate entries in the source; they are usually repeats but may differ in a detail not shown here. Equal values may be shown once.

Test system: nematodes
Experiment: Nematicide laboratory bioassay in ELISA plates, nematode mortality 24 h after treatment
Format: in vivo
Procedure: Bioassays were designed to determine the efficacy of tested formulations, and included the following steps: • 1. nematode extraction from carrot disks using the mesh extraction method; • 2. counting of extracted nematodes in a sample of 100 μL of water; • 3. preferably, nematode count in such a sample is between 40-80 nematodes; • 4. determining efficacy in ELISA plates; • 5. preparing a stock solution that is 10 times more diluted than the main formulation for all treatments; • 6. for treatments tested at 5% or 1.5%, aliquots of 50 μL or 15 μL of the corresponding stock solution were introduced to a well, respectively. Volume was completed with 50 μL of the nematode extract, except for treatments tested at 1.5%, an additional 35 μL of distilled water was introduced to reach a total volume of 100 μL. Content of the well was sufficiently mixed with a pipette, to ensure proper distribution of both nematodes and treatment components; • 7. performing at least 6 replicates of every treatment. The flask containing the nematode colony was mixed by manual shaking every time before nematodes were introduced to the well. This way we ensure a somewhat homogenous nematode count and avoid nematodes settling at the bottom of the flask; • 8. keeping the whole ELISA plate in dark conditions for 24 hours after introduction of the treatment; and • 9. assessing nematode mortality 24 hours after treatment under stereoscope. Nematodes that were moving were considered alive. Nematodes that were not moving were poked with a fine brush, if they respond to the poking with slight movements, they were considered alive. If not, they were considered dead.
The only validity criterium was that nematode mortality in the negative controls should not exceed 10%.
The raw mortality data was analyzed using RStudio (version 1.4.1717). The data sets were subjected to Shapiro-Wilk test for normality (α=0.05). Data was not normally distributed; therefore, a Kruskal-Wallis test was applied. Where there was significance, a Wilcoxon rank sum t-test was performed for pairwise comparisons between treatment groups.

[1] = mean over replicates, 24 h, tested dose per Table 2
[2] = sum over replicates, 24 h, tested dose per Table 2

`CNC(=O)O/N=C(\SC)C(=O)N(C)C` [Oxamyl] was tested, and the mean alive [1] was 20.50, the mean dead [1] was 22.17 and the alive (nematodes counted alive per replicate well, 24 h after treatment, tested dose per Table 2) was 22 and 20 and 25 and 17 and 24 and 18 and 7 and 27 and 5 and 34 and 21 and 26. For the same compound, the Dead (nematodes counted dead per replicate well, 24 h after treatment, tested dose per Table 2 (5%, 1.5% or 1% w/v)) was 24 and 34 and 29 and 20 and 31 and 39 and 15 and 4 and 18 and 5 and 22 and 25, the total alive [2] was 246 and the total dead [2] was 266. The “Mortality (%) 24 h post exposure” value (tested dose per Table 2 (5%, 1.5% or 1% w/v)) was 50.76%.
